# Measurements reported in US20160122407A1, “Galectin-3 Inhibitor (Gal-3M) is Associated with Additive Anti-Myeloma and Anti-Solid Tumor Effects, Decreased Osteoclastogenesis and Organ Protection when Used in Combination with Proteasome Inhibitors” (Texas Tech University System, priority 2014, published 2016).
# Legend:
# [1] = test system: 5TGM1 cells; assay: Cell viability assay (ViaLight Plus); assay type: cell-based, murine; conditions: Carf 10 nM, Gal3M 10 ug/ml
# Protocol: Cell viability assay. 5TGM1 cells were treated for 48 hours with carfilzomib, Gal3M or the combination of these two agents, then cell viability was assessed by the ViaLight Plus Cell Proliferation and Cytotoxicity BioAssay Kit (Lonza) according to the directions of the manufacturer.
# [2] = test system: 5TGM1 cells; assay: Chemotaxis assay (Transwell); assay type: cell-based, murine
# Protocol: Chemotaxis assay. 5TGM1 cells (4×10^5/well) were plated in 100 μL serum-free medium in the top chambers of 24-well Transwell™ inserts (Corning Costar, N.Y., USA) with 8-μm. Complete cell culture medium (600 μL) containing 10% FBS was added to the bottom chamber. Cells were treated for 4 hours with Gal3M (10 μg/ml), carfilzomib (10 nM) or carfilzomib plus Gal3M (same doses), and 5TGM1 cells in the lower chamber were fixed and counted.
# [3] = test system: 5TGM1 cells; assay: Invasion ability of 5TGM1 cells; assay type: cell-based, murine; conditions: Carf 10 nM, Gal3M 10 ug/ml
# [4] = test system: 5TGM1 cells; assay: 5TGM1 syngeneic mice model of MM, serum IgG2b and SP17 ELISA; assay type: in vivo, C57BL/KaLwRij mice
# Protocol: (§1) Testing Gal3M and carfilzomib in 5TGM1 syngeneic mice model. 5TGM1 cells were washed once with PBS (Sigma-Aldrich) and counted. The suspension containing […] 5TGM1 cells was injected I.V. into 20 C57BL/KaLwRij mice, 5 non-injected mice were used as negative controls. Tumor engraftment was assessed by testing IgG2b in the sera once a week. After 14 days the injected mice were randomly divided into four groups (five mice/group). Control group #1 was injected with PBS-only, group #2 received a dose of Gal3M (100 μg/mouse), group #3 received a dose of carfilzomib (112 μg/mouse) and group #4 received a dose of carfilzomib (112 μg/mouse) plus Gal3M (100 ug/mouse). Treatment effect on tumor growth was assessed by testing IgG2b and SP17 levels in the sera. Anesthetized animals were euthanized after 28 days and a postmortem examination was conducted on the whole animals and dissected organs.
# ELISA for Sp17 and IgG2b. The levels of SP17 and IgG2b in mice serum were measured by direct ELISA as follows. Flat-bottom 96-well polycarbonate plates were coated with 100 μL/well sera diluted 1:25 in carbonate coating buffer (0.1 M Na2CO3, 0.1 M NaHCO3, pH 9.5) at 4° C. overnight. Then, after blocking with PBS supplemented with 1% W/V BSA for 1 hour at RT, plates were incubated with mouse anti-mouse Sp17 or IgG2b primary antibodies (1:500 in PBS, 100 μL/well, Santa Cruz Biotechnology) for 1 hour at RT. Then, plates were washed thrice with PBS with 0.025% V/V Tween-20 (200 μL/well) and incubated at RT with anti-mouse HRP-labeled secondary antibodies (1:10,000 in PBS; Abcam, Cambridge, Mass., USA) for 1 hour. The plates were washed thrice with PBS containing 0.025% V/V Tween-20 (200 μL/well), the TMB colorimetric substrate (Thermo Fisher Scientific, Waltham, Mass., USA) was added, and after 5 minutes the absorbance was measured (0.1 s) at 450 nm on a Victor 2 multimodal microplate reader (PerkinElmer, Billerica, Mass., USA). All samples were run in triplicates.
# [5] = test system: kidney and heart; assay: Kidney and heart toxicity in 5TGM1 mice (hematoxylin/eosin, activated caspase-3 IHC); conditions: mouse, in vivo
# Protocol: 5TGM1 cells were washed once with PBS (Sigma-Aldrich) and counted. […] Tumor engraftment was assessed by testing IgG2b in the sera once a week. After 14 days the injected mice were randomly divided into four groups (five mice/group). […] Treatment effect on tumor growth was assessed by testing IgG2b and SP17 levels in the sera. Anesthetized animals were euthanized after 28 days and a postmortem examination was conducted on the whole animals and dissected organs.
# Immunohistochemistry analysis of markers of osteoclasts (anti-Cathepsin K antibody, Abcam), osteoblasts (anti-osteocalcin antibody, Abcam) and apoptosis (anti-activated caspase-3 antibody, Cell Signaling Technologies) were carried out in paraffin-embedded sections. Hearts and kidneys from treated and control mice were fixed in formalin, dehydrated in ethanol, embedded in paraffin, and then cut in 3.5 μm-thick sections. For bone sections, following formalin-fixation, decalcification with 10% EDTA (pH=8), and de-hydration in ethanol, femurs were included in paraffin, then cut in 5 μm-thick sections. […] Sections were rinsed twice in PBS+0.05% Tween-20, then endogenous peroxidase was blocked with 1% H2O2 in PBS for 15′. After rinsing three times with PBS+0.05% Tween-20 for 2′, slides were incubated with the secondary antibody (1:1000, Goat anti-Rabbit-HRP, Abcam) for 1 hour at RT. […]
# [6] = test system: Raw264.7 cells co-cultured with 5TGM1 cells; assay: 5TGM1-driven osteoclastogenesis in vitro (TRAP staining); assay type: cell-based, murine; conditions: co-culture with 5TGM1, 5 μM carfilzomib, 10 μM Gal3M, 7 days, vs control co-culture
# Protocol: Osteoclast differentiation from RAW264.7 cells. For co-culture experiments Raw264.7 and 5TGM1 cells were seeded on a 6-well plate at a density of 1×10^4 cells/well (about 8×103 Raw264.7 and 2×103 […]) and cultured in presence/absence of carfilzomib, Gal3M or carfilzomib plus Gal3M. After 5-7 days cells were fixed on the culture plates with citrate-acetone solution and stained for TRAP (Sigma-Aldrich). Osteoclasts were identified and enumerated under light microscopy by the presence of ≧3 nuclei by using an Olympus microscope.
# [7] = test system: 5TGM1 mice; assay: Bone mass density analysis on x-ray images of 5TGM1 mice; assay type: in vivo; conditions: compared with tumor-bearing untreated mice
# Protocol: as §1
# Bone mass density analysis. X-ray images were taken at the euthanasia day using IVIS Lumina Series III Pre-clinical In Vivo Imaging System (Perkin Elmer, USA) and bone mass density analysis (BMD) were performed as previously described (McManus M M, 2011).
# [8] = test system: 5TGM1 mice; assay: IHC for osteocalcin and Cathepsin K on decalcified bones; assay type: in vivo
# Protocol: Immunohistochemistry. Immunohistochemistry analysis of markers of osteoclasts (anti-Cathepsin K antibody, Abcam), osteoblasts (anti-osteocalcin antibody, Abcam) and apoptosis (anti-activated caspase-3 antibody, Cell Signaling Technologies) were carried out in paraffin-embedded sections. Hearts and kidneys from treated and control mice were fixed in formalin, dehydrated in ethanol, embedded in paraffin, and then cut in 3.5 μm-thick sections. For bone sections, following formalin-fixation, decalcification with 10% EDTA (pH=8), and de-hydration in ethanol, femurs were included in paraffin, then cut in 5 μm-thick sections. After deparaffinization in xylene and re-hydration (100%-95%-70%-50% ethanol scale), slides were placed 10′ in distilled water, then incubated 20′ at 98° C. in Sodium Citrate Buffer (10 mM Sodium Citrate, 0.05% Tween 20, pH 6.0). After blocking with PBS+5% V/V FBS (2 hours at room temperature), the anti Cathepsin K, steocalcin and active Caspase3 antibodies were added (diluted 1:400 in PBS+1% BSA) and allowed to incubate overnight at 4° C. Sections were rinsed twice in PBS+0.05% Tween-20, then endogenous peroxidase was blocked with 1% H2O2 in PBS for 15′. After rinsing three times with PBS+0.05% Tween-20 for 2′, slides were incubated with the secondary antibody (1:1000, Goat anti-Rabbit-HRP, Abcam) for 1 hour at RT. […]
# [9] = test system: LLC; assay: Murine lung cancer (LLC) study, measurement of tumor size; assay type: in vivo; conditions: LLC mice, treatment from 14 days after injection, Carfilzomib 112 ug and 224 ug
# Protocol: Measurement of tumor size. 14 days after injection of LLC, the mice were treated with XM and Carfilzomib (112 ug and 224 ug) for two (2) consecutive days three (3) times weekly.
# [10] = test system: kidney, liver, lung, spleen, and heart; assay: Western Blot of apoptotic marker caspase-3 in organs of LLC mice; assay type: in vivo, mouse; conditions: after 36 days
# Source text: FIG. 14 is a Western Blot of the apoptopic marker […]-3 of cells in solid tumors with no treatment, XM alone, Carfilzomib alone, and Carfilzomib plus XM. After 36 days, the mice were sacrificed and organs collected for the Western Blot.
# [11] = test system: lung cancer (tumor); assay: ELISA for AKAP-4 expression in tumor and lung tissue; assay type: in vivo, mice; conditions: tumor and lung tissue lysates
# Source text: The wells were coated with tumor and lung tissue lysates.
# [12] = MM patients; cited from earlier work
compound,measurement,setting,value
CC(C)C[C@H](NC(=O)[C@H](CCc1ccccc1)NC(=O)CN1CCOCC1)C(=O)N[C@@H](Cc1ccccc1)C(=O)N[C@@H](CC(C)C)C(=O)[C@@]1(C)CO1 [Carfilzomib],growth of 5TGM1 (in words),[1],significantly inhibited
same,chemotaxis of 5TGM1 (in words),"[2]; Carf 10 nM, Gal3M 10 ug/ml",significantly inhibited
same,inhibition at 0.01 µM,"[2]; Mus musculus, 5TGM1 cells, 4 hours, Gal3M 10 μg/ml, carfilzomib 10 nM, read-out: inhibition of the ability of 5TGM1 cells to migrate in response to chemotactic stimuli",40%
same,invasion ability of 5TGM1 (in words),[3],significantly inhibited
same,decrease in IgG2b levels,"[4]; day 21, treated on day 14, compared to untreated MM bearing mice",14%
same,decrease in SP17 serum levels,"[4]; day 28, compared to untreated mice",37%
same,decrease in IgG2b levels,"[4]; day 28, treated on day 14, compared to untreated MM bearing mice",36%
same,histological analysis of kidney and heart: morphology and activated caspase-3,"[5]; C57BL/KaLwRij, 28 days",associated with changes in cellular architecture and caspase-3 activation
same,kidney toxicity,[5],kidney toxicity both at minimum and maximum dose
same,decrease in formation of TRAP+/multinucleated Raw264.7 cells,[6],55%
same,BMD increase ROI2,[7]; distal femur end,19%
same,BMD increase ROI1,[7]; proximal femur end,28%
same,BMD increase ROI3,[7]; tibia,12%
same,Cathepsin K-positive cells (osteoclasts marker),[8],decrease
same,osteocalcin-positive cells (osteoblasts marker),[8],increase
same,tumor growth (tumor size),[9],inhibited tumor growth
same,apoptosis (caspase-3 Western Blot) in mouse organs,[10],increased apoptosis
same,effect on lung cancer (AKAP-4 ELISA),[11],have an effect on lung cancer (tumor)
same,treated patients discontinuing therapy because of renal and cardiac side effects,[12],approximately 15%
